This passage reports MIC results from ChEMBL document CHEMBL3739363, “Discovery of bisindolyl-substituted cycloalkane-anellated indoles as novel class of antibacterial agents against S. aureus and MRSA” (2016).

Holding throughout (format): functional
For assay [1], the system named is Staphylococcus aureus. Nature of the assay: Antibacterial activity against Staphylococcus aureus ATCC 25923 by two-fold serial dilution method.
Assay [2] has as its system Staphylococcus aureus. Nature of the assay: Antibacterial activity against clinical isolate methicillin-resistant Staphylococcus aureus by two-fold serial dilution method.
Assay [3] concerns Staphylococcus aureus. Nature of the assay: Antibacterial activity against methicillin-resistant Staphylococcus aureus ATCC 43300 by two-fold serial dilution method.

Values after ≈ are worked out from the molar mass of the structure shown.

As usually defined, the MIC is the smallest concentration in the dilution series that meets the test's criterion for growth inhibition. A lower MIC goes with a more susceptible organism. For `CC1(C)S[C@@H]2[C@H](NC(=O)[C@H](N)c3ccccc3)C(=O)N2[C@H]1C(=O)O` [AMPICILLIN], the figures for the MIC in assay [1], in assay [2] and in assay [3] were 1.56 µg/mL (≈ 4.46 µM), 50 µg/mL (≈ 143 µM) and 50 µg/mL (≈ 143 µM), respectively.

Turning to `c1ccc2c([C@@H]3CC[C@@H](c4c[nH]c5ccccc45)c4c3[nH]c3ccccc43)c[nH]c2c1` (relative stereo), the minimum inhibitory concentration (MIC) in assay [1] is 3.12 µg/mL (≈ 7.78 µM); in assay [2], 6.25 µg/mL (≈ 15.6 µM); in assay [3], 3.12 µg/mL (≈ 7.78 µM).

In the case of `CC(=O)n1cc([C@@H]2CC[C@H](c3cn(C(C)=O)c4ccccc34)c3c2[nH]c2ccccc32)c2ccccc21` (relative stereo), the minimal inhibitory concentration (MIC) in assay [1], in assay [2] and in assay [3] was 100 µg/mL (≈ 206 µM) throughout.

For the molecule `Clc1ccc2[nH]cc([C@@H]3CCC[C@@H](c4c[nH]c5ccc(Cl)cc45)c4c3[nH]c3ccc(Cl)cc43)c2c1` (relative stereo), the minimal inhibitory concentration (MIC) in assay [1] was 3.12 µg/mL (≈ 6.02 µM); in assay [2] it was 6.25 µg/mL (≈ 12 µM); in assay [3], 6.25 µg/mL (≈ 12 µM).

With `BrC1[C@@H](c2c[nH]c3ccccc23)c2[nH]c3ccccc3c2[C@@H]1c1c[nH]c2ccccc12` (relative stereo), the MIC in assay [1] amounted to 3.12 µg/mL (≈ 6.7 µM); in assay [2], 6.25 µg/mL (≈ 13.4 µM); in assay [3] it was 3.12 µg/mL (≈ 6.7 µM).

On to `CC1(C)S[C@@H]2[C@H](NC(=O)[C@@H](N)c3ccccc3)C(=O)N2[C@H]1C(=O)OCOC(=O)[C@@H]1N2C(=O)C[C@H]2S(=O)(=O)C1(C)C`, for which the MIC in assay [1] is 0.78 µg/mL (≈ 1.31 µM); in assay [2] it was 25 µg/mL (≈ 42 µM); in assay [3], 25 µg/mL (≈ 42 µM).

Consider `CC(=O)n1cc([C@H]2CCC[C@@H](c3cn(C(=O)O)c4ccccc34)c3[nH]c4ccccc4c32)c2ccccc21` (relative stereo), for which the MIC was determined as 100 µg/mL (≈ 199 µM) in assay [1], 50 µg/mL (≈ 99.7 µM) in assay [2] and 50 µg/mL (≈ 99.7 µM) in assay [3].

Take `ClC1[C@@H](c2c[nH]c3ccccc23)c2[nH]c3ccccc3c2[C@@H]1c1c[nH]c2ccccc12` (relative stereo): the MIC in assay [1] stood at 3.12 µg/mL (≈ 7.41 µM); in assay [2] it was 6.25 µg/mL (≈ 14.8 µM); in assay [3], 3.12 µg/mL (≈ 7.41 µM).

On to `c1ccc2c([C@@H]3CCCC[C@@H](c4c[nH]c5ccccc45)c4c3[nH]c3ccccc43)c[nH]c2c1` (relative stereo), for which the minimal inhibitory concentration (MIC) was 3.12 µg/mL (≈ 7.27 µM) in assay [1], 12.5 µg/mL (≈ 29.1 µM) in assay [2] and 6.25 µg/mL (≈ 14.5 µM) in assay [3].

On to `CC(=O)n1cc([C@H]2CC[C@@H](c3cn(C(C)=O)c4ccccc34)c3c2c2ccccc2n3C(C)=O)c2ccccc21` (relative stereo), for which the MIC in assay [1], in assay [2] and in assay [3] was 50 µg/mL (≈ 94.8 µM) throughout.

Take `Clc1ccc2c([C@@H]3CCC[C@@H](c4c[nH]c5cc(Cl)ccc45)c4c3[nH]c3cc(Cl)ccc43)c[nH]c2c1` (relative stereo): the values for the MIC in assay [1], in assay [2] and in assay [3] were 3.12 µg/mL (≈ 6.02 µM), 12.5 µg/mL (≈ 24.1 µM) and 6.25 µg/mL (≈ 12 µM), respectively.

`c1ccc2c([C@@H]3C[C@@H](c4c[nH]c5ccccc45)c4c3[nH]c3ccccc43)c[nH]c2c1` (relative stereo): the values for the minimum inhibitory concentration (MIC) in assay [1], in assay [2] and in assay [3] were 50 µg/mL (≈ 129 µM), 12.5 µg/mL (≈ 32.3 µM) and 12.5 µg/mL (≈ 32.3 µM), respectively.

For the molecule `c1ccc2c([C@@H]3CCC[C@@H](c4c[nH]c5ccccc45)c4c3[nH]c3ccccc43)c[nH]c2c1` (relative stereo), the minimal inhibitory concentration (MIC) in assay [1] is 3.12 µg/mL (≈ 7.52 µM); in assay [2] it was 12.5 µg/mL (≈ 30.1 µM); in assay [3], 6.25 µg/mL (≈ 15 µM).

On to `CC(=O)n1cc([C@H]2CCC[C@@H](c3c[nH]c4ccccc34)c3[nH]c4ccccc4c32)c2ccccc21` (relative stereo), for which the values for the MIC in assay [1], in assay [2] and in assay [3] were 25 µg/mL (≈ 54.6 µM), 12.5 µg/mL (≈ 27.3 µM) and 12.5 µg/mL (≈ 27.3 µM), respectively.

In the case of `Clc1ccc2c([C@@H]3CC[C@@H](c4c[nH]c5cc(Cl)ccc45)c4c3[nH]c3cc(Cl)ccc43)c[nH]c2c1` (relative stereo), the MIC in assay [1], in assay [2] and in assay [3] was 12.5 µg/mL (≈ 24.8 µM) in each case.

As to `Clc1ccc2[nH]cc([C@@H]3CC[C@@H](c4c[nH]c5ccc(Cl)cc45)c4c3[nH]c3ccc(Cl)cc43)c2c1` (relative stereo), the MIC in assay [1] was 3.12 µg/mL (≈ 6.19 µM); in assay [2] it was 12.5 µg/mL (≈ 24.8 µM); in assay [3] it was 6.25 µg/mL (≈ 12.4 µM).
